Assay results as given in patent publication US20230203060A1 (GENFLEET THERAPEUTICS (SHANGHAI) INC., priority 2020, published 2023).

Experiments:
[1] = system: KRAS G12C mutant NCI-H358 cells; test: Cell proliferation inhibition experiment, 3D spheroid, CellTiter-Glo, NCI-H358; format: cell-based, human; details: Homo sapiens, NCI-H358, 120 h, NCI-H358 (KRAS G12C mutant) 3D spheroid, 5 days with compound, CellTiter-Glo; read-out: H358 IC50
In short: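 Luminescence (CellTiter-Glo, 30 min incubation) was read after 5 days of compound treatment of overnight-formed spheroids of 800 H358 or 400 A549 cells in 2% FBS medium. Inhibition relative to DMSO and blank controls was fitted with a four-parameter model to yield IC50.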

[2] = system: KRAS G12C mutant MIA PaCa-2 cells; test: Cell proliferation inhibition experiment, 3D spheroid, CellTiter-Glo, MIA PaCa-2; format: cell-based, human; details: Homo sapiens, MIA PaCa-2, 120 h, 3D cell model in 384-well spheroid plate, 5 days, CellTiter-Glo; read-out: MIA-PaCa2 IC50
In short: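 200 MIA PaCa-2 cells/well grown overnight as 3D spheroids, then exposed to 3.16-fold compound dilutions (0.1% DMSO final) for 5 days. Viability read by CellTiter-Glo luminescence; inhibition calculated against DMSO and medium-only controls, and IC50 fitted by four-parameter model.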

C=CC(=O)N1CCN2C(=O)c3c(N4CCN(C)C[C@@H]4C)nc(-c4ccccc4F)c(Cl)c3OC[C@H]2C1 [Z407-1, (R)-8-acryloyl-4-chloro-1-((S)-2,4-dimethylpiperazin-1-yl)-3-(2-fluorophenyl)-6,6a,7,8,9,10-hexahydro-12H-pyrazino[2,1-c]pyrido[3,4-f][1,4]oxazepin-12-one]
IC50 [1]: 18.8 nM
IC50 [2]: 39 nM

C=CC(=O)N1CCN2C(=O)c3c(N4C[C@H](N(C)C)CC4(C)C)nc(-c4c(F)ccc(F)c4O)c(Cl)c3OC[C@H]2C1 (single isomer, unassigned) [Z475-2]
IC50 [1]: 8 nM
IC50 [2]: 15 nM

C=CC(=O)N1CCN2C(=O)c3c(N4C[C@H](N5CC(C#N)C5)CC4(C)C)nc(-c4ccccc4F)c(Cl)c3OC[C@H]2C1 (single isomer, unassigned) [Z637-1]
IC50 [1]: 125 nM
IC50 [2]: 549 nM

C=CC(=O)N1CCN2C(=O)c3c(N4CC(O)CC4(C)C)nc(-c4c(O)cccc4F)c(Cl)c3OC[C@H]2C1 (stereo partly drawn) [Z50, (6aR)-8-amyloyl-4-chloro-3-(2-fluoro-6-hydroxyphenyl)-1-(4-hydroxy-2,2-dimethylpyrrolidin-1-yl)-6,6a,7,8,9,10-hexahydro-12H-pyrazino[2,1-c]pyrido[3,4-f][1,4]oxazepin-12-one]
IC50 [1]: 2 nM
IC50 [2]: 2 nM

C=CC(=O)N1CCN2C(=O)c3c(N4CCN(C)C[C@@H]4C)nc(-c4c(F)cccc4Cl)c(Cl)c3OC[C@H]2C1 [Z547, (6aR)-8-acryloyl-4-chloro-3-(2-chloro-6-fluorophenyl)-1-((S)-2,4-dimethylpiperazin-1-yl)-6,6a,7,8,9,10-hexahydro-12H-pyrazino[2,1-c]pyrido[3,4-f][1,4]oxazepin-12-one]
IC50 [1]: 19.3 nM
IC50 [2]: 43 nM

C=CC(=O)N1CCN2C(=O)c3c(N4C[C@@H](N5CC(OC)C5)CC4(C)C)nc(-c4ccccc4F)c(Cl)c3OC[C@H]2C1 [Z479-1, (R)-8-acryloyl-4-chloro-3-(2-fluorophenyl)-1-((S)-4-(3-methoxyazetidin-1-yl)-2,2-dimethylpyrrolidin-1-yl)-6,6a,7,8,9,10-hexahydro-12H-pyrazino[2,1-c]pyrido[3,4-f][1,4]oxazepin-12-one]
IC50 [1]: 5.7 nM
IC50 [2]: 15 nM

C=CC(=O)N1CCN2C(=O)c3c(N4C[C@@H](NCC(F)(F)F)CC4(C)C)nc(-c4ccccc4F)c(Cl)c3OC[C@H]2C1 (single isomer, unassigned) [Z662-1]
IC50 [1]: 3 nM
IC50 [2]: 11 nM

C=CC(=O)N1CCN2C(=O)c3c(N4CC(N5CCN(C)CC5)CC4(C)C)nc(-c4ccccc4F)c(Cl)c3OC[C@H]2C1 (stereo partly drawn) [Z454, (6aR)-8-acryloyl-4-chloro-1-(2,2-dimethyl-4-(4-methylpiperazin-1-yl)pyrrolidin-1-yl)-3-(2-fluorophenyl)-6,6a,7,8,9,10-hexahydro-12H-pyrazino[2,1-c]pyrido[3,4-f][1,4]oxazepin-12-one]
IC50 [1]: 2 nM
IC50 [2]: 4.7 nM

C=CC(=O)N1CCN2C(=O)c3c(N4C[C@H](N5CC(F)C5)CC4(C)C)nc(-c4ccccc4F)c(F)c3OC[C@H]2C1 [Z654-2, (R)-8-acryloyl-4-fluoro-1-((R)-4-(3-fluoroazetidin-1-yl)-2,2-dimethylpyrrolidin-1-yl)-3-(2-fluorophenyl)-6,6a,7,8,9,10-hexahydro-12H-pyrazino[2,1-c]pyrido[3,4-f][1,4]oxazepin-12-one]
IC50 [1]: 15 nM
IC50 [2]: 50.2 nM

C=CC(=O)N1CCN2C(=O)c3c(N4C[C@@H](N(C)CC(F)F)CC4(C)C)nc(-c4ccccc4F)c(Cl)c3OC[C@H]2C1 (single isomer, unassigned) [Z659-1]
IC50 [1]: 5 nM
IC50 [2]: 16 nM

C=CC(=O)N1CCN2C(=O)c3c(N4C[C@H](N5CC(C(F)(F)F)C5)CC4(C)C)nc(-c4ccccc4F)c(Cl)c3OC[C@H]2C1 (single isomer, unassigned) [Z608-1]
IC50 [1]: 99.5 nM
IC50 [2]: 330 nM

C=CC(=O)N1CCN2C(=O)c3c(N4C[C@@H](N(C)C)CC4(C)C)nc(-c4ccccc4)c(Cl)c3OC[C@H]2C1 (single isomer, unassigned) [Z655-1]
IC50 [1]: 38 nM
IC50 [2]: 113 nM

C=CC(=O)N1CCN2C(=O)c3c(N4C[C@@H](N(C)C)CC4(C)C)nc(-c4c(F)ccc(F)c4O)c(Cl)c3OC[C@H]2C1 [Z475-1, (6aR)-8-acryloyl-4-chloro-3-(3,6-difluoro-2-hydroxyphenyl)-1-((S)-4-(dimethylamino)-2,2-dimethylpyrrolidin-1-yl)-6,6a,7,8,9,10-hexahydro-12H-pyrazino[2,1-c]pyrido[3,4-f][1,4]oxazepin-12-one]
IC50 [1]: 2 nM
IC50 [2]: 5 nM

C=CC(=O)N1CCN2C(=O)c3c(N4CC(N5CCOCC5)CC4(C)C)nc(-c4ccccc4F)c(Cl)c3OC[C@H]2C1 (single isomer, unassigned) [Z468-1]
IC50 [1]: 4 nM
IC50 [2]: 16 nM

C=CC(=O)N1CCN2C(=O)c3c(N[C@H](C)c4ccccc4)nc(-c4c(O)cccc4F)c(Cl)c3OC[C@H]2C1 [Z28, (6aR)-8-acryloyl-4-chloro-3-(2-fluoro-6-hydroxyphenyl)-1-(((R)-1-phenylethyl)amino)-6,6a,7,8,9,10-hexahydro-12H-pyrazino[2,1-c]pyrido[3,4-f][1,4]oxazepin-12-one]
IC50 [1]: 62 nM
IC50 [2]: 150 nM

C=CC(=O)N1CCN2C(=O)c3c(N4CC(N(C)CC(F)F)CC4(C)C)nc(-c4ccccc4F)c(Cl)c3OCC2C1 (single isomer, unassigned) [Z659-2]
IC50 [1]: 1 nM
IC50 [2]: 4 nM

C=CC(=O)N1CCN2C(=O)c3c(N4C[C@@H](C(=O)O)CC4(C)C)nc(-c4c(O)cccc4F)c(Cl)c3OC[C@H]2C1 (single isomer, unassigned) [Z458-1]
IC50 [1]: 189 nM
IC50 [2]: > 1000 nM

C=CC(=O)N1CCN2C(=O)c3c(N4C[C@@H](N5CCN(C)CC5)CC4(C)C)nc(-c4ccccc4F)c(Cl)c3OC[C@H]2C1 (single isomer, unassigned) [Z454-1]
IC50 [1]: 1.2 nM
IC50 [2]: 3.5 nM

C=CC(=O)N1CCN2C(=O)c3c(N4CC(N(C)C)CC4(C)C)nc(-c4ccccc4F)c(Cl)c3OC[C@H]2C1 (single isomer, unassigned) [Z453-2]
IC50 [1]: 16.6 nM
IC50 [2]: 45.2 nM

C=CC(=O)N1CCN2C(=O)c3c(N4C[C@@H](N5CCN(C)CC5)CC4(C)C)nc(-c4ccccc4F)c(F)c3OC[C@H]2C1 (single isomer, unassigned) [Z474-1]
IC50 [1]: 8.3 nM
IC50 [2]: 13 nM

C=CC(=O)N1CCN2C(=O)c3c(N4CCOC[C@@H]4C)nc(-c4c(O)cccc4F)c(Cl)c3OC[C@H]2C1 [Z32]
IC50 [1]: 9 nM
IC50 [2]: 11 nM

C=CC(=O)N1CCN2C(=O)c3c(N4CCC[C@@]4(C)C(=O)NC)nc(-c4c(O)cccc4F)c(Cl)c3OC[C@H]2C1 [Z462, (2S)-1-((6aR)-8-acryloyl-4-chloro-3-(2-fluoro-6-hydroxyphenyl)-12-oxo-6,6a,7,8,9,10-hexahydro-12H-pyrazino[2,1-c]pyrido[3,4-f][1,4]oxazepin-1-yl)-N,2-dimethylpyrrolidine-2-carboxamide]
IC50 [1]: 12.4 nM
IC50 [2]: 16 nM

C=CC(=O)N1CCN2C(=O)c3c(N4C[C@@H](O)CC4(C)C)nc(-c4ccccc4F)c(F)c3OC[C@H]2C1 (single isomer, unassigned) [Z408-1]
IC50 [1]: 21.7 nM
IC50 [2]: 79.3 nM

C=CC(=O)N1CCN2C(=O)c3c(N4CCN(C)C[C@@H]4C)nc(-c4c(F)cccc4C(F)F)c(Cl)c3OC[C@H]2C1 [Z456, (6aR)-8-acryloyl-4-chloro-3-(2-(difluoromethyl)-6-fluorophenyl)-1-((S)-2,4-dimethylpiperazin-1-yl)-6,6a,7,8,9,10-hexahydro-12H-pyrazino[2,1-c]pyrido[3,4-f][1,4]oxazepin-12-one]
IC50 [1]: 9.4 nM
IC50 [2]: 22.8 nM

C=CC(=O)N1CCN2C(=O)c3c(N4C[C@H](N(C)C)CC4(C)C)nc(-c4cccc(C)c4F)c(Cl)c3OC[C@H]2C1 (single isomer, unassigned) [Z472-2]
IC50 [1]: 8 nM
IC50 [2]: 53 nM

C=CC(=O)N1CCN2C(=O)c3c(N4C[C@@H](NC)CC4(C)C)nc(-c4ccccc4F)c(Cl)c3OC[C@H]2C1 (single isomer, unassigned) [Z661-1]
IC50 [1]: 6 nM
IC50 [2]: 14 nM

C=CC(=O)N1CCN2C(=O)c3c(N4C[C@H](N(C)CC(F)(F)F)CC4(C)C)nc(-c4ccccc4F)c(Cl)c3OC[C@H]2C1 (single isomer, unassigned) [Z493]
IC50 [1]: 27 nM
IC50 [2]: 112 nM

C=CC(=O)N1CCN2C(=O)c3c(N4CC(O)CC4(C)C)nc(-c4c(F)cccc4OC)c(F)c3OC[C@H]2C1 (single isomer, unassigned) [Z450]
IC50 [1]: 13.1 nM
IC50 [2]: 34 nM

C=CC(=O)N1CCN2C(=O)c3c(N4C[C@@H](N5CCN(C)CC5)CC4(C)C)nc(-c4c(O)cccc4F)c(Cl)c3OC[C@H]2C1 (single isomer, unassigned) [Z469-1]
IC50 [1]: 0.5 nM
IC50 [2]: 0.6 nM

C=CC(=O)N1CCN2C(=O)c3c(N4C[C@@H](N5CCN(C)CC5)C[C@@H]4C)nc(-c4ccccc4F)c(Cl)c3OC[C@H]2C1 [Z470-2]
IC50 [1]: 3 nM
IC50 [2]: 4 nM

C=CC(=O)N1CCN2C(=O)c3c(N4CCN(C)C[C@@H]4C)nc(C#CC)c(Cl)c3OC[C@H]2C1 [Z459, (R)-8-acryloyl-4-chloro-1-((S)-2,4-dimethylpiperazin-1-yl)-3-(prop-1-yn-1-yl)-6,6a,7,8,9,10-hexahydro-12H-pyrazino[2,1-c]pyrido[3,4-f][1,4]oxazepin-12-one]
IC50 [1]: 906 nM
IC50 [2]: > 1000 nM
